Test results published in patent publication US20240108740A1, “THERAPEUTIC COMPOSITIONS INCLUDING SPN10 AND USES THEREOF” (Stealth BioTherapeutics Inc., priority 2022, published 2024).
Residues, ends and D or L forms follow the SMILES beside them.

Experiments:
Sprague-Dawley rats = assay: Example 38: acute renal injury caused by unilateral ureteral obstruction (UUO); format: in vivo, rat
Description: Sprague-Dawley rats will undergo unilateral ureteral ligation with a 4-0 silk suture through a midline abdominal incision under sterile conditions. Ureteral obstruction will be carried out by ligating the lower end of the left ureter, just above the ureterovesical junction. Peptide conjugates (1 mg/kg or 3 mg/kg; n=16); aromatic-cationic peptides (an equivalent molar dose of aromatic-cationic peptide based on the concentration of the aromatic-cationic peptide administered in the peptide conjugate treatment group); SPN10(s) (an equivalent molar dose of SPN10 based on the concentration of SPN10 administered in the peptide conjugate treatment group); SPN10(s) in combination with aromatic-cationic peptides (e.g., an equivalent molar dose of SPN10 based on the concentration of SPN10 administered in the peptide conjugate treatment group and an equivalent molar dose of aromatic-cationic peptide based on the concentration of aromatic-cationic peptide administered in the peptide conjugate treatment group); or control vehicle (n=16) will be administered intraperitoneally, one day prior to UUO and continuing for 14 days following UUO.
Renal Histology: Trichrome sections of paraffin embedded specimens will be examined by a board-certified pathologist (SVS, renal pathology specialist), and fibrosis scored on a scale of 0—+++.
Immunohistochemical Analysis: Immunohistochemical staining for macrophages will be carried out using a monoclonal antibody to ED-1 as previously described. Macrophages will be counted in 10 high-power fields (×400) by two independent investigators in a blinded fashion. Apoptosis will be measured by TUNEL assay as described in Example 37. The presence of fibroblasts will be examined using immunohistochemistry, as described above, using the DAKO #S100-A4 antibody (1:100 dilution). Antigen will be retrieved by incubating cells with Proteinase K for 20 minutes. The remaining immunoperoxidase protocol will be carried out according to routine procedures.
It is expected that S100-A4 staining will be present in spindle-shaped interstitial cells and round, inflammatory cells. Only spindle-shaped cells will be quantified. Staining for 8-OH dG will be done using Proteinase K for antigen retrieval and an antibody provided by the Japan Institute Control of Aging at a dilution of 1:200-1:500.
Polymerase Chain Reaction Analysis: Renal expression of heme oxygenase-1 (HO-1) will be measured by RT-PCR according to the following: Rat kidneys will be harvested and stored at −80° C. until use. Total RNA will be extracted using the Trizol (R)-Chloroform extraction procedure, and mRNA will be purified using the Oligotex mRNA extraction kit (Qiagen, Valencia, California, U.S.A.) according to manufacturer instructions. mRNA concentration and purity will be determined by measuring absorbance at 260 nm. RT-PCR will be performed using Qiagen One-step PCR kit (Qiagen, Valencia, California, U.S.A.) and an automated thermal cycler (ThermoHybrid, PX2). Thermal cycling will be carried out as follows: initial activation step for 15 minutes at 95° C. followed by 35 cycles of denaturation for 45 seconds at 94° C., annealing for 30 seconds at 60° C., extension for 60 seconds at 72° C. Amplification products will be separated on a 2% agarose gel electrophoresis, visualized by ethidium bromide staining, and quantified using Image J densitometric analysis software. GAPDH will be used as an internal control.

[1] = tested on: rat model of radiocontrast dye-induced renal failure; assay: Example 39: radiocontrast dye-induced renal failure; format: in vivo
Description: Animal Model: A rat model of radiocontrast dye-induced renal failure as described by Agmon, et al., J. Clin. Invest. 94:1069-1075 (1994) will be used. As in humans, radiocontrast dyes are generally non-toxic when administered to animals with normal renal function. However, radiocontrast dyes can induce ARI in animals with impaired renal function. In this model, impaired renal function will be induced by the administration of indomethacin (10 mg/kg) and L-NAME (10 mg/kg). Animals will be assigned to one of the following groups:
2. Indomethcin and L-NAME administered 15 minutes apart, followed by iothalamate (6 mL/kg) (n=7)
3. peptide conjugates (3 mg/kg, i.p.) administered 15 minutes prior to indomethacin/L-NAME/iothalamate administration as described in Group 2; second dose of peptide conjugates (3 mg/kg) administered immediately after drug exposure (n=9).
4. aromatic-cationic peptides (an equivalent molar dose of aromatic-cationic peptide based on the concentration of the aromatic-cationic peptide administered in the peptide conjugate treatment group) administered 15 minutes prior to indomethacin/L-NAME/iothalamate administration as described in Group 2; second dose of aromatic-cationic peptides (an equivalent molar dose of aromatic-cationic peptide based on the concentration of the aromatic-cationic peptide administered in the peptide conjugate treatment group) administered immediately after drug exposure (n=9).
5. […]
Renal Function: Renal function will be assessed by determining GFR at baseline and 24 hours following dye administration. GFR will be determined by creatinine clearance which will be estimated over a 24 hour interval before and after dye administration. Creatinine clearance will be analyzed by measuring plasma and urinary creatinine levels (Bioassay Systems; DICT-500) and urine volume.
Renal Histology: Kidneys will be fixed in 10% neutral-buffered formalin and embedded in paraffin wax for sectioning. Three-micron sections will be stained with hematoxylin-eosin (H&E) and periodic acid-Schiff (PAS) and analyzed by light microscopy by a board certified pathologist. […]

SMILES: N=C(N)NCCC[C@H](NC(=O)[C@@H](N)Cc1c[nH]c2ccccc12)C(=O)N[C@@H](Cc1c[nH]c2ccccc12)C(=O)N[C@@H](CCCCN)C(N)=O [SPN10, H-L-Trp-L-Arg-L-Trp-L-Lys-NH2] (H-WRWK-NH2)
- tubular cell proliferation at the 1 mg/kg dose (Sprague-Dawley rats; 1 mg/kg): decreased
- fibroblast infiltration in obstructed kidneys (FSP-1) (Sprague-Dawley rats; 1 mg/kg (conjugate) or equivalent molar dose): significantly decrease the amount of fibroblast infiltration
- tubular apoptosis in obstructed kidneys (Sprague-Dawley rats; 1 mg/kg (conjugate) or equivalent molar dose, 2 weeks of UUO): significantly decrease tubular apoptosis
- macrophage infiltration in obstructed kidneys (Sprague-Dawley rats; 1 mg/kg or 3 mg/kg (conjugate) or equivalent molar dose): significantly decrease macrophage infiltration
- tubular cell proliferation at the 3 mg/kg dose (Sprague-Dawley rats; 3 mg/kg): further decreased
- trichrome staining (fibrosis score), cortex of obstructed kidney (Sprague-Dawley rats; 14 days UUO): 0-trace
- trichrome staining (fibrosis score), medulla of obstructed kidney (Sprague-Dawley rats; 14 days UUO): tr—1+
- HO-1 expression in the obstructed kidney (Sprague-Dawley rats; RT-PCR): decrease HO-1 expression
- medullary fibrosis (Sprague-Dawley rats; rat, in vivo): decrease medullary fibrosis
- number of 8-OH dG positive cells (Sprague-Dawley rats; rat, in vivo): significantly reduced
- renal tubular proliferation in obstructed kidneys (PCNA) (Sprague-Dawley rats; rat, in vivo): significant decrease in renal tubular proliferation
- number of apoptotic cells in contrast dye-exposed kidneys ([1]; TUNEL): reduce the number of apoptotic cells
- loss of renal brush border and vacuolization (PAS) ([1]; contrast dye-exposed kidneys): attenuated
- decline in renal function (GFR) after contrast dye ([1]; indomethacin, L-NAME, iothalamate, treatment before and after dye): reduce the decline in renal function
